Assay results published in patent US20260022143A1, “Cyclic Peptide Inhibitors of IL-23” (JANSSEN PHARMACEUTICA NV, priority 2022, published 2026).
Positions of bridges follow the written chain, without caps; N, C: chain ends. Non-standard residues stand in square brackets, D forms with d. Residues, ends and D or L forms follow the SMILES beside them. *: point of attachment. Trp(7-(3-AcNH-Ph)) = CC(=O)Nc1cccc(-c2cccc3c(C[C@H](N)C(=O)O)c[nH]c23)c1; Me3N+(CH2)2O(CH2)2O(CH2)2CO = C[N+](C)(C)CCOCCOCCC(=O)*; Trp(7-Me) = Cc1cccc2c(C[C@H](N)C(=O)O)c[nH]c12; X28 = CCCCCCCCCCCCCCCC[N+](C)(C)CCc1cn(CC*)nn1; 2Nal = N[C@@H](Cc1ccc2ccccc2c1)C(=O)O; X45 = COCC[N+](C)(C)CCc1cn(CC*)nn1; 3Pal = N[C@@H](Cc1cccnc1)C(=O)O; X14 = C[N+](C)(C)CCc1cn(CC*)nn1; Lys(Me) = CNCCCC[C@H](N)C(=O)O; Pen = CC(C)(S)[C@H](N)C(=O)O; X44 = c1cc[n+](CCOCCOCC*)cc1; X38 = C[N+](C)(C)CCCCCC*; Thp = NC1(C(=O)O)CCOCC1; X3 = C[N+](C)(C)CCCCC*; Sar = CNCC(=O)O

Tests used:
IL-23R = target: T1, IL-23R (Homo sapiens, UniProt Q5VWK5); test: IL23R Reporter Assay; format: cell-based; settings: HEK293 cells containing IL-23R, IL-12RP1 and STAT-inducible firefly luciferase reporter; 10 ng/mL IL-23 (EC90); 5 h at 37° C.; read-out: IL23R Reporter Assay
T1 construct: host or cells: HEK293
T1 sequence (Q5VWK5 24-629): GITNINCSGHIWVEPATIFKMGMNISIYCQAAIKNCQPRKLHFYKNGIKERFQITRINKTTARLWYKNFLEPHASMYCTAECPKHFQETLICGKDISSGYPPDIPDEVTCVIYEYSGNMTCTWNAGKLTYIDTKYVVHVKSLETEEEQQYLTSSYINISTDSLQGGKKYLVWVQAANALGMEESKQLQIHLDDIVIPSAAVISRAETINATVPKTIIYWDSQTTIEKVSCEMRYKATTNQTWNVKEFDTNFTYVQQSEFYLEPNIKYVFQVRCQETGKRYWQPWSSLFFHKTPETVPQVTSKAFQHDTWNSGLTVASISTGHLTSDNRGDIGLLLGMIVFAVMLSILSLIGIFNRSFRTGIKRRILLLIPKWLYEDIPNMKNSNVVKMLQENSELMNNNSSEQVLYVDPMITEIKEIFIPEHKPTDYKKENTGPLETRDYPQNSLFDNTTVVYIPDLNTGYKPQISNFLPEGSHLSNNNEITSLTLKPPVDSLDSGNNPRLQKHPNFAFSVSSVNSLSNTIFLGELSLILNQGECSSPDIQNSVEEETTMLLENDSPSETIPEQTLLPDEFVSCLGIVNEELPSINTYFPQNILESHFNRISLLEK

[1] = Exposed Polar Surface Area (EPSA); format: physicochemical; settings: SFC on Chirex 3014 column; sample 1 mM DMSO stock; read-out: EPSA
Method in brief: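 EPSA, in Å^2, is read from SFC retention time through a linear relationship established with eight calibration standards. Separation uses a Chirex 3014 stationary phase, 35 °C, 14 MPa back pressure, and a 5–60% methanol/ammonium formate modifier gradient in CO2.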

SMILES	IC50 (IL-23R) [nM]	EPSA [1] [A^2]
COCC[N+](C)(C)CCc1cn(CCOc2ccc(C[C@H](NC(=O)[C@H]3NC(=O)[C@H](CCCCN(C)C(C)=O)NC(=O)[C@H](Cc4c[nH]c5c(C)cccc45)NC(=O)[C@H]([C@@H](C)O)NC(=O)[C@H](CC(=O)N(C)C)NC(=O)[C@@H](NC(=O)CCOCCOCC[N+](C)(C)C)C(C)(C)SSC3(C)C)C(=O)N[C@@H](Cc3ccc4ccccc4c3)C(=O)NC3(C(=O)N[C@@H](CCCCN(C)C(C)=O)C(=O)N[C@@H](CC(N)=O)C(=O)N[C@@H](Cc4cccnc4)C(=O)N(C)CC(=O)N(C)C)CCOCC3)cc2)nn1 [compound 285, cPEG3aCO-Pen(3)-N(N(Me)2)-T-7MeW-K(NMeAc)-Pen(3)-Y(OTzlChmPEG)-2Nal-THP-K(NMeAc)-N-3Pya-Sar-CON(Me)2] ({Me3N+(CH2)2O(CH2)2O(CH2)2CO}-[Pen]D(NMe2)T[Trp(7-Me)][Lys(Me)](Ac)[Pen]Y(X45)[2Nal][Thp][Lys(Me)](Ac)N[3Pal][Sar]-NMe2; disulfide 1-6)	3.8	148
CC(=O)N(C)CCCC[C@@H]1NC(=O)[C@H](Cc2c[nH]c3c(C)cccc23)NC(=O)[C@H]([C@@H](C)O)NC(=O)[C@H](CC(=O)N(C)C)NC(=O)[C@@H](NC(=O)CCOCCOCC[N+](C)(C)C)C(C)(C)SSC(C)(C)[C@@H](C(=O)N[C@@H](Cc2ccc(OCCn3cc(CC[N+](C)(C)C)nn3)cc2)C(=O)N[C@@H](Cc2ccc3ccccc3c2)C(=O)NC2(C(=O)N[C@@H](CCCCN(C)C(C)=O)C(=O)N[C@@H](CC(N)=O)C(=O)N[C@@H](Cc3cccnc3)C(=O)N(C)CC(=O)N(C)C)CCOCC2)NC1=O [compound 286, cPEG3aCO-Pen(3)-N(N(Me)2)-T-7MeW-K(NMeAc)-Pen(3)-Y(OTzlCh)-2Nal-THP-K(NMeAc)-N-3Pya-Sar-CON(Me)2] ({Me3N+(CH2)2O(CH2)2O(CH2)2CO}-[Pen]D(NMe2)T[Trp(7-Me)][Lys(Me)](Ac)[Pen]Y(X14)[2Nal][Thp][Lys(Me)](Ac)N[3Pal][Sar]-NMe2; disulfide 1-6)	3.2	149
COCC[N+](C)(C)CCc1cn(C[C@H](NC(=O)[C@H]2NC(=O)[C@H](CCCCN(C)C(C)=O)NC(=O)[C@H](Cc3c[nH]c4c(C)cccc34)NC(=O)[C@H]([C@@H](C)O)NC(=O)[C@H](CC(=O)N(C)C)NC(=O)[C@@H](NC(=O)CCOCCOCC[N+](C)(C)C)C(C)(C)SSC2(C)C)C(=O)N[C@@H](Cc2ccc3ccccc3c2)C(=O)NC2(C(=O)N[C@@H](CCCCN(C)C(C)=O)C(=O)N[C@@H](CC(N)=O)C(=O)N[C@@H](Cc3cccnc3)C(=O)N(C)CC(=O)N(C)C)CCOCC2)nn1 [compound 288, cPEG3aCO-Pen(3)-N(N(Me)2)-T-7MeW-K(NMeAc)-Pen(3)-TzlChmPEG-2Nal-THP-K(NMeAc)-N-3Pya-Sar-CON(Me)2]	24	144
COCCOCCOCC[N+](C)(C)CCc1cn(C[C@H](NC(=O)[C@H]2NC(=O)[C@H](CCCCN(C)C(C)=O)NC(=O)[C@H](Cc3c[nH]c4c(C)cccc34)NC(=O)[C@H]([C@@H](C)O)NC(=O)[C@H](CC(=O)N(C)C)NC(=O)[C@@H](NC(=O)CCOCCOCC[N+](C)(C)C)C(C)(C)SSC2(C)C)C(=O)N[C@@H](Cc2ccc3ccccc3c2)C(=O)NC2(C(=O)N[C@@H](CCCCN(C)C(C)=O)C(=O)N[C@@H](CC(N)=O)C(=O)N[C@@H](Cc3cccnc3)C(=O)N(C)CC(=O)N(C)C)CCOCC2)nn1 [compound 289, cPEG3aCO-Pen(3)-N(N(Me)2)-T-7MeW-K(NMeAc)-Pen(3)-TzlChmPEG3-2Nal-THP-K(NMeAc)-N-3Pya-Sar-CON(Me)2]	79	142
CCCCCCCCCCCCCCCC[N+](C)(C)CCc1cn(CCOc2ccc(C[C@H](NC(=O)[C@H]3NC(=O)[C@H](CCCCN(C)C(C)=O)NC(=O)[C@H](Cc4c[nH]c5c(C)cccc45)NC(=O)[C@H]([C@@H](C)O)NC(=O)[C@H](CC(=O)N(C)C)NC(=O)[C@@H](NC(=O)CCOCCOCC[N+](C)(C)C)C(C)(C)SSC3(C)C)C(=O)N[C@@H](Cc3ccc4ccccc4c3)C(=O)NC3(C(=O)N[C@@H](CCCCN(C)C(C)=O)C(=O)N[C@@H](CC(N)=O)C(=O)N[C@@H](Cc4cccnc4)C(=O)N(C)CC(=O)N(C)C)CCOCC3)cc2)nn1 [compound 291, cPEG3aCO-Pen(3)-N(N(Me)2)-T-7MeW-K(NMeAc)-Pen(3)-Y(OTzlChC16)-2Nal-THP-K(NMeAc)-N-3Pya-Sar-CON(Me)2] ({Me3N+(CH2)2O(CH2)2O(CH2)2CO}-[Pen]D(NMe2)T[Trp(7-Me)][Lys(Me)](Ac)[Pen]Y(X28)[2Nal][Thp][Lys(Me)](Ac)N[3Pal][Sar]-NMe2; disulfide 1-6 (inferred))	610	137
CC(=O)N(C)CCCC[C@@H]1NC(=O)[C@H](Cc2c[nH]c3c(C)cccc23)NC(=O)[C@H]([C@@H](C)O)NC(=O)[C@H](CC(=O)N(C)C)NC(=O)[C@@H](NC(=O)CCOCCOCC[N+](C)(C)C)C(C)(C)SSC(C)(C)[C@@H](C(=O)N[C@@H](Cc2ccc(OCCCCCC[N+](C)(C)C)cc2)C(=O)N[C@@H](Cc2ccc3ccccc3c2)C(=O)NC2(C(=O)N[C@@H](CCCCN(C)C(C)=O)C(=O)N[C@@H](CC(N)=O)C(=O)N[C@@H](Cc3cccnc3)C(=O)N(C)CC(=O)N(C)C)CCOCC2)NC1=O [compound 293, cPEG3aCO-Pen(3)-N(N(Me)2)-T-7MeW-K(NMeAc)-Pen(3)-TMA6F-2Nal-THP-K(NMeAc)-N-3Pya-Sar-CON(Me)2] ({Me3N+(CH2)2O(CH2)2O(CH2)2CO}-[Pen]D(NMe2)T[Trp(7-Me)][Lys(Me)](Ac)[Pen]Y(X38)[2Nal][Thp][Lys(Me)](Ac)N[3Pal][Sar]-NMe2; disulfide 1-6)	3.2	149
CC(=O)Nc1cccc(-c2cccc3c(C[C@@H]4NC(=O)[C@H]([C@@H](C)O)NC(=O)[C@H](CC(=O)N(C)C)NC(=O)[C@@H](NC(=O)CCOCCOCC[N+](C)(C)C)C(C)(C)SSC(C)(C)[C@@H](C(=O)N[C@@H](Cc5ccc(OCCCCC[N+](C)(C)C)cc5)C(=O)N[C@@H](Cc5ccc6ccccc6c5)C(=O)NC5(C(=O)N[C@@H](CCCCN(C)C(C)=O)C(=O)N[C@@H](CC(N)=O)C(=O)N[C@@H](Cc6cccnc6)C(=O)N(C)CC(=O)N(C)C)CCOCC5)NC(=O)[C@H](CCCCN(C)C(C)=O)NC4=O)c[nH]c23)c1 [compound 294, cPEG3aCO-Pen(3)-N(N(me)2)-T-7(3NAcPh)W-K(NMeAc)-Pen(3)-TMAPF-2Nal-THP-K(NMeAc)-N-3Pya-Sar-CON(Me)2] ({Me3N+(CH2)2O(CH2)2O(CH2)2CO}-[Pen]D(NMe2)T[Trp(7-(3-AcNH-Ph))][Lys(Me)](Ac)[Pen]Y(X3)[2Nal][Thp][Lys(Me)](Ac)N[3Pal][Sar]-NMe2; disulfide 1-6 (inferred))	1.2	157
CC(=O)N(C)CCCC[C@@H]1NC(=O)[C@H](Cc2c[nH]c3c(C)cccc23)NC(=O)[C@H]([C@@H](C)O)NC(=O)[C@H](CC(=O)N(C)C)NC(=O)[C@@H](NC(=O)CCOCCOCC[N+](C)(C)C)C(C)(C)SSC(C)(C)[C@@H](C(=O)N[C@@H](Cc2ccc(OCCOCCOCC[n+]3ccccc3)cc2)C(=O)N[C@@H](Cc2ccc3ccccc3c2)C(=O)NC2(C(=O)N[C@@H](CCCCN(C)C(C)=O)C(=O)N[C@@H](CC(N)=O)C(=O)N[C@@H](Cc3cccnc3)C(=O)N(C)CC(=O)N(C)C)CCOCC2)NC1=O [compound 297, cPEG3aCO-Pen(3)-N(N(Me)2)-T-7MeW-K(NMeAc)-Pen(3)-NPyPEG3F-2Nal-THP-K(NMeAc)-N-3Pya-Sar-CON(Me)2] ({Me3N+(CH2)2O(CH2)2O(CH2)2CO}-[Pen]D(NMe2)T[Trp(7-Me)][Lys(Me)](Ac)[Pen]Y(X44)[2Nal][Thp][Lys(Me)](Ac)N[3Pal][Sar]-NMe2; disulfide 1-6 (inferred))	1.8	153
CNC(=O)C[C@@H]1NC(=O)[C@@H](NC(=O)CCOCCOCC[N+](C)(C)C)C(C)(C)SSC(C)(C)[C@@H](C(=O)N[C@@H](Cc2ccc(OCCCCC[N+](C)(C)C)cc2)C(=O)N[C@@H](Cc2ccc3ccccc3c2)C(=O)NC2(C(=O)N[C@@H](CCCCN(C)C(C)=O)C(=O)N[C@@H](CC(N)=O)C(=O)N[C@@H](Cc3cccnc3)C(=O)N(C)CC(=O)N(C)C)CCOCC2)NC(=O)[C@H](CCCCN(C)C(C)=O)NC(=O)[C@H](Cc2c[nH]c3c(C)cccc23)NC(=O)[C@H]([C@@H](C)O)NC1=O [compound 300, cPEG3aCO-Pen(3)-N(N(Me))-T-7MeW-K(NMeAc)-Pen(3)-TMAPF-2Nal-THP-K(NMeAc)-N-3Pya-Sar-CON(Me)2] ({Me3N+(CH2)2O(CH2)2O(CH2)2CO}-[Pen]D(NHMe)T[Trp(7-Me)][Lys(Me)](Ac)[Pen]Y(X3)[2Nal][Thp][Lys(Me)](Ac)N[3Pal][Sar]-NMe2; disulfide 1-6)	2.1	153
